Assay results published in patent publication US20210207064A1, “COMPOUND FOR RESTORING CONTAMINATED SOIL OR CONTAMINATED WATER” (FNG RESEARCH CO., LTD., priority 2018, published 2021).

Columns and labels:
[1] = Heavy metal removal ability test in contaminated soil (ICP-MS), cadmium; conditions: for Cadmium (Cd) Adsorption amount: contaminated soil; for Cadmium (Cd) Adsorption rate: relative to EDTA control
Experimental: (§1) (1) Preparation of Soil Contaminated with Heavy Metal
(§2) After collecting and pulverizing uncontaminated soil, fine particles obtained by using a mesh were mixed with the aqueous heavy metal solution to prepare soil samples contaminated with heavy metals.
(§3) Each 3 ml of the prepared aqueous solution was added to a soil sample contaminated with heavy metals and mixed for 5 minutes.
(§4) 50 ml of distilled water was added to the contaminated soil mixed with the aqueous solution for restoring soil, stirred for 20 minutes, and settled for 1 hour, and a supernatant was prepared as a sample solution.
(§5) The prepared sample solution was analyzed for the heavy metal component using an Inductively Coupled Plasma Mass Spectrometer (ICP-MS) (Xseries™ 2, Thermo Fisher Scientific, UK).
(§6) Adsorption rate of heavy metals (%)=(Adsorption amount of Embodiment/Adsorption amount of Control)×100 Equation 1

[2] = Heavy metal removal ability test in contaminated soil around a factory (WAK-Me test kit); conditions: 1.0 wt % aqueous solution, colour comparison test kit
Experimental: The contaminated soil around the factory in the industrial complex was collected, pulverized, and meshed to prepare fine particles of soil samples.
Each 3 ml of aqueous solutions for restoring soil was added to soil samples and mixed for 5 minutes.

[3] = Formaldehyde (formalin) removing ability test (GC); conditions: 2.0% formaldehyde solution, 3 molar equivalents of compound, room temperature; for Formaldehyde GC Area, 30 min: after 30 min; for Formaldehyde GC Area, 180 min: after 180 min; for Formaldehyde GC Area, Initial: initial state
[4] = Heavy metal removal ability test in contaminated soil (ICP-MS), arsenic; conditions: for Arsenic (As) Adsorption amount: contaminated soil; for Arsenic (As) Adsorption rate: relative to EDTA control
Experimental: as §1, §2, §3, §4, §5, §6

[5] = test system: human skin; assay: Skin irritation test of active ingredient (patch method, CTFA guidelines); format: in vivo; conditions: 24 h patch; for Test result (number of subject) (+) / Test result (number of subject) (++) / Test result (number of subject) (±) / Test result (number of subject) (−): 20 people; for Test result (number of subject) (+): (+) apparent reddening; for Test result (number of subject) (++): (++) more reddened and swollen; for Test result (number of subject) (±): (±) slightly reddish; for Test result (number of subject) (−): (−) no erythema
Experimental: A filter paper disk was placed in an 8 mm diameter, 10 panels of pin chamber.
After 24 hours, the pin chamber was removed, and skin conditions were visually observed. The degree and grade for skin irritation were calculated according to the following Equation 2, and the results are shown in Table 4 below.
[Criteria for Skin Irritation]
(−): No erythema or particularly no symptoms; (±): slightly reddish than the periphery; (+): Apparent reddening than periphery; (++): More reddened and swollen than periphery.
[Grade for Skin Irritation]
Degree of irritation 0-0.1: Grade I (unstimulated);
Degree of irritation 0.11-0.3: Grade II (weakly stimulated);
Degree of irritation 0.31-0.5: Grade III (moderately stimulated);
Degree of irritation 0.51 or more: Grade IV (strongly stimulated)

[6] = Heavy metal removal ability test in contaminated soil (ICP-MS), nickel; conditions: for Nickel (Ni) Adsorption amount: contaminated soil; for Nickel (Ni) Adsorption rate: relative to EDTA control
Experimental: as §1, §2, §3, §4, §5, §6

Structure (SMILES) | Cadmium (Cd) Adsorption amount ([1]; content 0.5% aqueous solution) [ppm] | Cadmium (Cd) Adsorption rate ([1]; content 0.5%) [%] | Cadmium (Cd) Adsorption amount ([1]; content 1.0% aqueous solution) [ppm] | Cadmium (Cd) Adsorption rate ([1]; content 1.0%) [%] | Cadmium (Cd) Adsorption amount ([1]; content 2.0% aqueous solution) [ppm] | Cadmium (Cd) Adsorption rate ([1]; content 2.0%) [%] | Total amount (Cu, Zn, Mn, Ni, Cd) [2] [ppm] | Formaldehyde GC Area, 30 min [3] [mAU*min] | Formaldehyde GC Area, 180 min [3] [mAU*min] | Formaldehyde GC Area, Initial [3] [mAU*min] | Arsenic (As) Adsorption amount ([4]; content 0.5% aqueous solution) [ppm] | Arsenic (As) Adsorption rate ([4]; content 0.5%) [%] | Arsenic (As) Adsorption amount ([4]; content 1.0% aqueous solution) [ppm] | Arsenic (As) Adsorption rate ([4]; content 1.0%) [%] | Arsenic (As) Adsorption amount ([4]; content 2.0% aqueous solution) [ppm] | Arsenic (As) Adsorption rate ([4]; content 2.0%) [%] | Test result (number of subject) (+) ([5]; content 0.1 wt %) | Test result (number of subject) (++) ([5]; content 0.1 wt %) | Test result (number of subject) (±) ([5]; content 0.1 wt %) | Nickel (Ni) Adsorption amount ([6]; content 0.5% aqueous solution) [ppm] | other results
O=C(O)c1ccc(N(CCN(CCN(c2ccc(C(=O)O)cc2)c2ccc(C(=O)O)cc2)c2ccc(C(=O)O)cc2)CCN(c2ccc(C(=O)O)cc2)c2ccc(C(=O)O)cc2)cc1 [Embodiment 2, 4,4′,4″,4′″-(((ethane-1,2-diylbis((4-carboxyphenyl)azanediyl))bis(ethane-2,1-diyl))bis(azanetriyl))tetrabenzoic Acid] | 75 | 183 | 86 | 210 | 88 | 215 | ≤5 | 0.168 | 0 | 0.305 | 48 | 192 | 49 | 196 | 53 | 212 | 0 | 0 | 0 | 94 | Test result (number of subject) (−) ([5]; content 0.1 wt %): 20; Degree of irritation ([5]; content 0.1 wt %): 0; Grade for skin irritation ([5]; content 0.1 wt %): I (Degree of irritation 0-0.1: Grade I (unstimulated)); Test result (number of subject) (+) ([5]; content 0.5 wt %): 0; Test result (number of subject) (++) ([5]; content 0.5 wt %): 0; Test result (number of subject) (±) ([5]; content 0.5 wt %): 0; Test result (number of subject) (−) ([5]; content 0.5 wt %): 20; Degree of irritation ([5]; content 0.5 wt %): 0; Grade for skin irritation ([5]; content 0.5 wt %): I (Degree of irritation 0-0.1: Grade I (unstimulated)); Test result (number of subject) (+) ([5]; content 1.0 wt %): 0; Test result (number of subject) (++) ([5]; content 1.0 wt %): 0; Test result (number of subject) (±) ([5]; content 1.0 wt %): 1; Test result (number of subject) (−) ([5]; content 1.0 wt %): 19; Degree of irritation ([5]; content 1.0 wt %): 0.05; Grade for skin irritation ([5]; content 1.0 wt %): I (Degree of irritation 0-0.1: Grade I (unstimulated)); Nickel (Ni) Adsorption rate ([6]; content 0.5%): 192%; Nickel (Ni) Adsorption amount ([6]; content 1.0% aqueous solution): 96 ppm; Nickel (Ni) Adsorption rate ([6]; content 1.0%): 196%; Nickel (Ni) Adsorption amount ([6]; content 2.0% aqueous solution): 103 ppm; Nickel (Ni) Adsorption rate ([6]; content 2.0%): 210%
O=C(O)CN1CCCN(CC(=O)O)CCN(CC(=O)O)CCCN(CC(=O)O)CC1 [Embodiment 9, 2,2′,2″,2′″-(1,4,8,11-tetraazacyclotetradecane-1,4,8,11-tetrayl)tetraacetic Acid] | 61 | 149 | 66 | 161 | 70 | 171 | ≤5 | 0.182 | 0 | 0.305 | 42 | 168 | 46 | 184 | 48 | 192 | 0 | 0 | 0 | 76 | Test result (number of subject) (−) ([5]; content 0.1 wt %): 20; Degree of irritation ([5]; content 0.1 wt %): 0; Grade for skin irritation ([5]; content 0.1 wt %): I (Degree of irritation 0-0.1: Grade I (unstimulated)); Test result (number of subject) (+) ([5]; content 0.5 wt %): 0; Test result (number of subject) (++) ([5]; content 0.5 wt %): 0; Test result (number of subject) (±) ([5]; content 0.5 wt %): 0; Test result (number of subject) (−) ([5]; content 0.5 wt %): 20; Degree of irritation ([5]; content 0.5 wt %): 0; Grade for skin irritation ([5]; content 0.5 wt %): I (Degree of irritation 0-0.1: Grade I (unstimulated)); Test result (number of subject) (+) ([5]; content 1.0 wt %): 0; Test result (number of subject) (++) ([5]; content 1.0 wt %): 0; Test result (number of subject) (±) ([5]; content 1.0 wt %): 2; Test result (number of subject) (−) ([5]; content 1.0 wt %): 18; Degree of irritation ([5]; content 1.0 wt %): 0.10; Grade for skin irritation ([5]; content 1.0 wt %): I (Degree of irritation 0-0.1: Grade I (unstimulated)); Nickel (Ni) Adsorption rate ([6]; content 0.5%): 155%; Nickel (Ni) Adsorption amount ([6]; content 1.0% aqueous solution): 85 ppm; Nickel (Ni) Adsorption rate ([6]; content 1.0%): 173%; Nickel (Ni) Adsorption amount ([6]; content 2.0% aqueous solution): 96 ppm; Nickel (Ni) Adsorption rate ([6]; content 2.0%): 196%
O=C(O)c1cncc(N2CCCN(c3cncc(C(=O)O)c3)CCN(c3cncc(C(=O)O)c3)CCCN(c3cncc(C(=O)O)c3)CC2)c1 [Embodiment 11, 5,5′,5″,5′″-(1,4,8,11-tetraazacyclotetradecane-1,4,8,11-tetrayl)tetranicotinic Acid] | 59 | 144 | 66 | 161 | 70 | 171 | ≤5 | 0.174 | 0 | 0.305 | 38 | 152 | 41 | 164 | 47 | 188 | 0 | 0 | 0 | 79 | Test result (number of subject) (−) ([5]; content 0.1 wt %): 20; Degree of irritation ([5]; content 0.1 wt %): 0; Grade for skin irritation ([5]; content 0.1 wt %): I (Degree of irritation 0-0.1: Grade I (unstimulated)); Test result (number of subject) (+) ([5]; content 0.5 wt %): 0; Test result (number of subject) (++) ([5]; content 0.5 wt %): 0; Test result (number of subject) (±) ([5]; content 0.5 wt %): 0; Test result (number of subject) (−) ([5]; content 0.5 wt %): 20; Degree of irritation ([5]; content 0.5 wt %): 0; Grade for skin irritation ([5]; content 0.5 wt %): I (Degree of irritation 0-0.1: Grade I (unstimulated)); Test result (number of subject) (+) ([5]; content 1.0 wt %): 0; Test result (number of subject) (++) ([5]; content 1.0 wt %): 0; Test result (number of subject) (±) ([5]; content 1.0 wt %): 2; Test result (number of subject) (−) ([5]; content 1.0 wt %): 18; Degree of irritation ([5]; content 1.0 wt %): 0.10; Grade for skin irritation ([5]; content 1.0 wt %): I (Degree of irritation 0-0.1: Grade I (unstimulated)); Nickel (Ni) Adsorption rate ([6]; content 0.5%): 161%; Nickel (Ni) Adsorption amount ([6]; content 1.0% aqueous solution): 88 ppm; Nickel (Ni) Adsorption rate ([6]; content 1.0%): 180%; Nickel (Ni) Adsorption amount ([6]; content 2.0% aqueous solution): 93 ppm; Nickel (Ni) Adsorption rate ([6]; content 2.0%): 190%
O=C(O)CN(CCN(CC(=O)O)CC(=O)O)CC(=O)O [Control (EDTA), ethylenediaminetetraacetic acid, reference compound] | 41 | – | – | – | – | – | 2.0 | – | – | – | 25 | – | – | – | – | – | – | – | – | 49 | –
